Data on 22 compounds can be found in PubChem BioAssay AID634 (Vanderbilt High Throughput Screening Facility, 2007).

SMILES strings stand for the structures. Calls of active or inactive are those of the source. The rule behind the calls is not given here.

The experiment deals with Voltage-gated potassium channel subunit beta-2 (Rattus norvegicus) (UniProt P62483). Description: KvBeta positive modulator confirmation, biochemical (AID 634). To be noted: Rat Kvbeta2 enzymatic assay, slope read-out; active compounds read low.
Chain of Voltage-gated potassium channel subunit beta-2 (Rattus norvegicus) (P62483 whole entry, looked up): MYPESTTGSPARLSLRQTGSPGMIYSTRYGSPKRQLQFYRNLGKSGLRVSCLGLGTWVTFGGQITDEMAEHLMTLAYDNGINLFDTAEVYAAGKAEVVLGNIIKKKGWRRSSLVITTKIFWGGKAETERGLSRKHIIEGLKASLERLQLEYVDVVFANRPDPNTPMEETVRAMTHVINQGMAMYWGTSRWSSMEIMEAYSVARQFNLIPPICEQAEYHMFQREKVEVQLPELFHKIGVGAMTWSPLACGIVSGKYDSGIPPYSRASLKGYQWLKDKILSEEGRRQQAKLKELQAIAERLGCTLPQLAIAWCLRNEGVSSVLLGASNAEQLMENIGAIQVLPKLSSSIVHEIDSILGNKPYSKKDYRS
As to `CC(O)CNc1nc2c(c(=O)n(C)c(=O)n2C)n1CCc1ccccc1` (configuration not stated), the slope was 0.0661 (inactive).
The result for `CCn1cc(C(=O)Nc2cc3c(cc2NC(C)=O)OCCO3)c(=O)c2ccc(C)nc21` reads 0.112 (inactive).
As for `CN1C(=S)SC(C)(NO)C1(C)C` (configuration not stated), the slope was -0.536.
The result for `NS(=O)(=O)c1cc2c(cc1Cl)NC=NS2(=O)=O` reads 0.0676 (inactive).
As to `CCOC(=O)C1=C(N)OC(C)=C(C(=O)OCCOC)C12C(=O)Nc1ccccc12` (configuration not stated), the slope was 0.0877 (inactive).
Next, `O=C(C1=C(O)C(=O)N(CCCN2CCOCC2)C1c1ccccn1)c1cc2ccccc2o1` (configuration not stated): 0.134 (inactive).
Next, `CCN(CC)CCCn1c(=S)[nH]c2cc(Cl)ccc2c1=O`: 0.133 (inactive); `O=C(NCCC1=CCCCC1)N[C@@H](Cc1ccccc1)C(=O)O`: 0.0842 (inactive); `CCOc1ccccc1Nc1nc2ccccc2[nH]1`: 0.0352 (inactive).
The result for `O=C(NCc1cccs1)C(Cc1ccccc1)NS(=O)(=O)c1cccs1` (configuration not stated) reads 0.0568 (inactive).
Turning to `COc1ccccc1C1/C(=C(/O)c2ccc(OC(C)C)cc2)C(=O)C(=O)N1c1cc(C)on1` (configuration not stated), the slope is 0.0306 (inactive).
`Cc1ccc(N2C(=O)C3ON(c4ccccc4)C(c4ccncc4)C3C2=O)cc1` (configuration not stated): the slope was 0.0514 (inactive).
The result for `COc1cccc(Oc2ccc(N)cc2)c1` reads 0.062 (inactive); that for `O=c1c2ccccc2[se]n1-c1ccccc1`, -0.798.
The result for `CC(=O)Oc1ccc2c(C)cc(=O)[nH]c2c1` reads 0.0957 (inactive).
As to `CCCCCC#CCC#CCC#CCC#CCCCC(=O)O`, the slope was -0.0283 (inactive).
The result for `CC(c1ccco1)N(C(=O)c1ccc(S(=O)(=O)N2CCCCC2)cc1)c1ccccn1` (configuration not stated) reads 0.0766 (inactive).
Next, `C=CCn1c(SCC(=O)NCC2CCCO2)nc2scc(-c3ccco3)c2c1=O` (configuration not stated): 0.0642 (inactive); `CCOC(=O)CNC(=O)Nc1ccccc1C(=O)OC`: 0.092 (inactive).
Regarding `Cc1ccc2c(c1)[C@@H]1CN(C)CC[C@@H]1N2C(=O)Nc1cccc(C(F)(F)F)c1`, the slope is -0.0275 (inactive).
`CCCCOc1ccc(-c2nnn(C(C)(C)C(=O)OC)n2)cc1`: the slope was 0.0535 (inactive).
The result for `Cn1c(SCC(=O)Nc2ccc3c(c2)oc2ccccc23)nnc1-c1ccccc1` reads 0.119 (inactive).
